Values quoted from earlier work in patent publication US20040197402A1, “Oxcarbazepine dosage forms” (priority 2001, published 2004).

Conditions: background statement

- solubility in water: poor solubility in water
Compound: NC(=O)N1c2ccccc2CC(=O)c2ccccc21 [Oxcarbazepine, 10, 11-dihydro-10-oxo-5H-dibenz [b,f], azepine-5-carboxamide]
